# Test results from US10787447B2, “Pharmaceutical compounds” (Heptares Therapeutics Limited, priority 2018, dated 2020).
# Like-named read-outs stand apart in the source and are kept apart here.
# Key:
# Assay type in all cases: cell-based
# [1] = target: T1, human muscarinic M3 receptor (Homo sapiens, UniProt P20309); assay: Alphascreen Surefire phospho-ERK1/2 functional assay, M3; conditions: for % Emax cf. ACh, M3 / Emax: Emax relative to ACh; for Emax: CHO, read-out: % Emax cf. ACh, M3, CHO cells stably expressing human M3; for EC50: phospho-ERK1/2
# T1 construct: expressed in transfected cells
# T1 sequence (P20309 whole entry): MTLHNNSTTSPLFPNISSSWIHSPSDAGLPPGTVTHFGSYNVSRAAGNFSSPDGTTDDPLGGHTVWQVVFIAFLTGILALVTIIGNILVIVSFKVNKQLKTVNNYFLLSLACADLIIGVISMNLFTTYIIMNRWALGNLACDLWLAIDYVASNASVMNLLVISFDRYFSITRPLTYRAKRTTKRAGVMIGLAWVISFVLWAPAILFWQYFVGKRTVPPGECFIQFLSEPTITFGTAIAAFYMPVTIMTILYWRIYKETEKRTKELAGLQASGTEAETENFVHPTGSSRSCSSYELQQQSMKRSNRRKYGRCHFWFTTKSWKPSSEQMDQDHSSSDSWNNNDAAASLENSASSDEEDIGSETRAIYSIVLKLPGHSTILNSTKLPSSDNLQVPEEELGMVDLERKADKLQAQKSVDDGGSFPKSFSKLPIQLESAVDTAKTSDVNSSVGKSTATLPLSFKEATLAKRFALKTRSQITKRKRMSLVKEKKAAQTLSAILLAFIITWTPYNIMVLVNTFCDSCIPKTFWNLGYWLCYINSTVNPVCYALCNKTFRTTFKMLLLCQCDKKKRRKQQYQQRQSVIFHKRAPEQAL
# Procedure: (§1) ERK1/2 phosphorylation is a downstream consequence of both Gq/11 and Gi/o protein coupled receptor activation, making it highly suitable for the assessment of M1, M3 (Gq/11 coupled) and M2, M4 receptors (Gi/o coupled), rather than using different assay formats for different receptor subtypes. CHO cells stably expressing the human muscarinic M1, M2, M3 or M4 receptor were plated (25K/well) onto 96-well tissue culture plates in MEM-alpha+10% dialysed FBS. Once adhered, cells were serum-starved overnight. Agonist stimulation was performed by the addition of 5 μL agonist to the cells for 5 min (37° C.). Media was removed and 50 μL of lysis buffer added. After 15 min, a 4 μL sample was transferred to 384-well plate and 7 μL of detection mixture added.
# (§2) Isomer assignment (Isomer 1, Isomer 2, etc.) is based on the retention time of the compound using the separation technique that was performed in the final purification step. By implication, this could be reversed phase HPLC, chiral HPLC or chiral SFC retention time, and this will vary from compound to compound.
# [2] = target: T2, human muscarinic M1 receptor (Homo sapiens, UniProt P11229); assay: Alphascreen Surefire phospho-ERK1/2 functional assay, M1; conditions: for % Emax cf. ACh, M1: Emax relative to ACh; for EC50: phospho-ERK1/2
# T2 sequence (P11229 1-460): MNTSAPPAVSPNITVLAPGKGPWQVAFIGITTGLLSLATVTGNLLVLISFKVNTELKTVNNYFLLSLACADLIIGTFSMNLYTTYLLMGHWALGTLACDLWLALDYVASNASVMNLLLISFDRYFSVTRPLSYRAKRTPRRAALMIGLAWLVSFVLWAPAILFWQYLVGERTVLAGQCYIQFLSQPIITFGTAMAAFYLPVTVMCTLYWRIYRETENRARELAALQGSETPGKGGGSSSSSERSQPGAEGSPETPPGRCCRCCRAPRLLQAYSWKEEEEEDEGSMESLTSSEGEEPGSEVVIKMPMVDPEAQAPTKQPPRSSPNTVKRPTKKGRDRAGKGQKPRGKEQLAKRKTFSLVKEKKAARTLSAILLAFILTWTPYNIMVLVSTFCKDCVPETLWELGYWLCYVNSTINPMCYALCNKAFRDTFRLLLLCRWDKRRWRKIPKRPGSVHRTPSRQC
# In short: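 Stably transfected CHO cells, serum-starved overnight, then exposed to agonist for 5 min at 37 °C. Cells lysed and phospho-ERK1/2 measured by AlphaScreen SureFire.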
# [3] = target: T3, human muscarinic M2 receptor (Homo sapiens, UniProt P08172); assay: Alphascreen Surefire phospho-ERK1/2 functional assay, M2; conditions: for EC50: phospho-ERK1/2
# T3 sequence (P08172 1-466): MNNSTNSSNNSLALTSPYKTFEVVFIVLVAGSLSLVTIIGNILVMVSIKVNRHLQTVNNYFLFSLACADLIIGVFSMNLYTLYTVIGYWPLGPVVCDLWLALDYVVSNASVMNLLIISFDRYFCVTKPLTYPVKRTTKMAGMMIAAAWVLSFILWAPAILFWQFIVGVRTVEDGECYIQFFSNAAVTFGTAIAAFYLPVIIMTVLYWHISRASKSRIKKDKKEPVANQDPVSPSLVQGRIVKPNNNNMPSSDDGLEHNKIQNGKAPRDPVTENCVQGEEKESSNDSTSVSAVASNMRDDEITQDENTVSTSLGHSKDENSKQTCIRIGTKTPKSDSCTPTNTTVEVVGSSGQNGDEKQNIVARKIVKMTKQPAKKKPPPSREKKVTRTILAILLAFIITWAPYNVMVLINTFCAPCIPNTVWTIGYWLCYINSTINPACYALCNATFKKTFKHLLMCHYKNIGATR
# Procedure: as §1, §2
# [4] = target: T4, human muscarinic M4 receptor (Homo sapiens, UniProt P08173); assay: Alphascreen Surefire phospho-ERK1/2 functional assay, M4; conditions: for % Emax cf. ACh, M4: Emax relative to ACh; for EC50: phospho-ERK1/2
# T4 sequence (P08173 1-479): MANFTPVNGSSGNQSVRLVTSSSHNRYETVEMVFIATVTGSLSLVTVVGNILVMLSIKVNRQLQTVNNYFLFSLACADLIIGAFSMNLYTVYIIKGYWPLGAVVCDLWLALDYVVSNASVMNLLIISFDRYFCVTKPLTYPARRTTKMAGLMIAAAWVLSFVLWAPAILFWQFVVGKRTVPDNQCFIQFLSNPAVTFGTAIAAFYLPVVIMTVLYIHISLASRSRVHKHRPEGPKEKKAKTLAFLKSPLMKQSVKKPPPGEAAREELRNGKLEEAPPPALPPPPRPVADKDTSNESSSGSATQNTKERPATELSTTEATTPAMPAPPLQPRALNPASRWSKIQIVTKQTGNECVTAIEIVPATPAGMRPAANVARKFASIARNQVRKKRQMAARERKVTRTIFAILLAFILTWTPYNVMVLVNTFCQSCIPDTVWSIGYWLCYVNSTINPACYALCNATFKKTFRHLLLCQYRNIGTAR
# In short: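 CHO cells stably expressing human M1, M2, M3 or M4 receptor, serum-starved overnight, then stimulated with agonist for 5 min at 37 °C. Cells lysed for 15 min and phospho-ERK1/2 detected in the lysate by AlphaScreen SureFire.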
# [5] = CHO cells stably expressing human M1
# [6] = pEC50 M1, CHO cells stably expressing human M1
# [7] = pEC50 M2, CHO cells stably expressing human M2
# [8] = pEC50 M4, CHO cells stably expressing human M4
# [9] = pEC50 M3, CHO cells stably expressing human M3
smiles,measurement,setting,value
"CCOC(=O)N1C2COCC1CC(N1CCC(N(CC(C)C)C(C)=O)CC1)C2 (single isomer, unassigned) [Example 6-1 Isomer 2, Ethyl 7-{4-[acetyl(2-methylpropyl)amino]piperidin-1-yl}-3-oxa-9-azabicyclo[3.3.1]nonane-9-carboxylate]","% Emax cf. ACh, M3","[1]; CHO cells stably expressing human M3, listed as 6-1 Isomer 2",62%
same,"% Emax cf. ACh, M1",[2]; [5],102%
same,EC50,[2]; [6],61.7 nM
same,"% Emax cf. ACh, M2","[3]; CHO cells stably expressing human M2, Emax relative to ACh, listed as 6-1 Isomer 2",90%
same,EC50,[3]; [7],324 nM
same,"% Emax cf. ACh, M4","[4]; CHO cells stably expressing human M4, listed as 6-1 Isomer 2",111%
same,EC50,[4]; [8],17.4 nM
"CCOC(=O)N1C2COCC1CC(N1CCC(n3cc(Cl)cn3)CC1)C2 (single isomer, unassigned) [Example 1-2 Isomer 2, Ethyl 7-[4-(4-chloro-1H-pyrazol-1-yl)piperidin-1-yl]-3-oxa-9-azabicyclo[3.3.1]nonane-9-carboxylate]",Emax,[1],2%
same,EC50,[1]; [9],> 20000 nM
same,"% Emax cf. ACh, M1","[2]; CHO cells stably expressing human M1, listed as 1-2 Isomer 2",67%
same,EC50,[2]; [6],77.6 nM
same,"% Emax cf. ACh, M2","[3]; CHO cells stably expressing human M2, Emax relative to ACh, listed as 1-2 Isomer 2",10%
same,EC50,[3]; [7],> 20000 nM
same,"% Emax cf. ACh, M4","[4]; CHO cells stably expressing human M4, listed as 1-2 Isomer 2",51%
same,EC50,[4]; [8],13.2 nM
"CCOC(=O)N1C2COCC1CC(N1CCC(N(CC3(C)CC3)C(C)=O)CC1)C2 (single isomer, unassigned) [Example 6-3 Isomer 1, Ethyl 7-(4-{acetyl[(1-methylcyclopropyl)methyl]amino}piperidin-1-yl)-3-oxa-9-azabicyclo[3.3.1]nonane-9-carboxylate]","% Emax cf. ACh, M3","[1]; CHO cells stably expressing human M3, listed as 6-3 Isomer 1",390%
same,EC50,[1]; [9],> 20000 nM
same,"% Emax cf. ACh, M1","[2]; CHO cells stably expressing human M1, listed as 6-3 Isomer 1",124%
same,EC50,[2]; [6],120 nM
same,"% Emax cf. ACh, M2","[3]; CHO cells stably expressing human M2, Emax relative to ACh, listed as 6-3 Isomer 1",36%
same,EC50,[3]; [7],355 nM
same,"% Emax cf. ACh, M4","[4]; CHO cells stably expressing human M4, listed as 6-3 Isomer 1",93%
same,EC50,[4]; [8],60.3 nM
"CCOC(=O)N1C2COCC1CC(N1CCC(N(CC3(C)CC3)C(C)=O)CC1)C2 (single isomer, unassigned) [Example 6-3 Isomer 2]","% Emax cf. ACh, M3","[1]; CHO cells stably expressing human M3, listed as 6-3 Isomer 2",9%
same,"% Emax cf. ACh, M1","[2]; CHO cells stably expressing human M1, listed as 6-3 Isomer 2",90%
same,EC50,[2]; [6],195 nM
same,"% Emax cf. ACh, M2","[3]; CHO cells stably expressing human M2, Emax relative to ACh, listed as 6-3 Isomer 2",11%
same,EC50,[3]; [7],> 20000 nM
same,"% Emax cf. ACh, M4","[4]; CHO cells stably expressing human M4, listed as 6-3 Isomer 2",44%
same,EC50,[4]; [8],389 nM
"CCOC(=O)N1C2COCC1CC(N1CCC3(CC1)CNC(=O)O3)C2 (single isomer, unassigned) [Example 5-3 Isomer 2, Ethyl 7-(2-oxo-1-oxa-3,8-diazaspiro[4.5]dec-8-yl)-3-oxa-9-azabicyclo[3.3.1]nonane-9-carboxylate]",EC50,"[1]; CHO cells stably expressing human M3, read-out: pEC50 M3 (converted)",> 20000 nM
same,Emax,[1],5%
same,"% Emax cf. ACh, M1",[2]; [5],73%
same,EC50,"[2]; CHO cells stably expressing human M1, read-out: pEC50 M1 (converted)",126 nM
same,EC50,"[3]; CHO cells stably expressing human M2, read-out: pEC50 M2 (converted)",> 20000 nM
same,Emax,"[3]; CHO, read-out: % Emax cf. ACh, M2, CHO cells stably expressing human M2, Emax relative to ACh",4%
same,"% Emax cf. ACh, M4",[4]; CHO cells stably expressing human M4,17%
same,EC50,"[4]; CHO cells stably expressing human M4, read-out: pEC50 M4 (converted)",> 20000 nM
"CCOC(=O)N1C2COCC1CC(N1CCC(c3cccnc3OC)CC1)C2 (single isomer, unassigned) [Example 2-2 Isomer 2, Ethyl 7-[4-(2-methoxypyridin-3-yl)piperidin-1-yl]-3-oxa-9-azabicyclo[3.3.1]nonane-9-carboxylate]","% Emax cf. ACh, M3",[1]; CHO cells stably expressing human M3,5%
same,"% Emax cf. ACh, M1","[2]; CHO cells stably expressing human M1, listed as 2-2 Isomer 2",10%
same,"% Emax cf. ACh, M2","[3]; CHO cells stably expressing human M2, Emax relative to ACh",3%
same,"% Emax cf. ACh, M4","[4]; CHO cells stably expressing human M4, listed as 2-2 Isomer 2",37%
same,EC50,[4]; [8],112 nM
"CCOC(=O)N1C2COCC1CC(N1CCC(N3CCCCC3=O)CC1)C2 (single isomer, unassigned) [Example 6-6 Isomer 2, Ethyl 7-(2-oxo-1,4′-bipiperidin-1′-yl)-3-oxa-9-azabicyclo[3.3.1]nonane-9-carboxylate]","% Emax cf. ACh, M3","[1]; CHO cells stably expressing human M3, listed as 6-6 Isomer 2",3%
same,"% Emax cf. ACh, M1","[2]; CHO cells stably expressing human M1, listed as 6-6 Isomer 2",50%
same,EC50,[2]; [6],977 nM
same,"% Emax cf. ACh, M2","[3]; CHO cells stably expressing human M2, Emax relative to ACh, listed as 6-6 Isomer 2",6%
same,EC50,[3]; [7],> 20000 nM
same,"% Emax cf. ACh, M4","[4]; CHO cells stably expressing human M4, listed as 6-6 Isomer 2",48%
same,EC50,[4]; [8],81.3 nM
"CCOC(=O)N1C2COCC1CC(N1CCC(c3ccc[nH]c3=O)CC1)C2 (single isomer, unassigned) [Example 2-3 Isomer 1, Ethyl 7-[4-(2-oxo-1,2-dihydropyridin-3-yl)piperidin-1-yl]-3-oxa-9-azabicyclo[3.3.1]nonane-9-carboxylate]",Emax,[1],9%
same,EC50,[1]; [9],> 20000 nM
same,"% Emax cf. ACh, M1","[2]; CHO cells stably expressing human M1, listed as 2-3 Isomer 1",77%
same,EC50,[2]; [6],195 nM
same,"% Emax cf. ACh, M2","[3]; CHO cells stably expressing human M2, Emax relative to ACh, listed as 2-3 Isomer 1",45%
same,EC50,[3]; [7],288 nM
same,"% Emax cf. ACh, M4","[4]; CHO cells stably expressing human M4, listed as 2-3 Isomer 1",99%
same,EC50,[4]; [8],6.46 nM
"CCOC(=O)N1C2COCC1CC(N1CCC(N(Cc3ccccc3)C(C)=O)CC1)C2 (single isomer, unassigned) [Example 6-5 Isomer 2, Ethyl 7-{4-[acetyl(benzyl)amino]piperidin-1-yl}-3-oxa-9-azabicyclo[3.3.1]nonane-9-carboxylate]","% Emax cf. ACh, M3","[1]; CHO cells stably expressing human M3, listed as 6-5 Isomer 2",83%
same,EC50,[1]; [9],2820 nM
same,"% Emax cf. ACh, M1",[2]; [5],91%
same,EC50,[2]; [6],15.8 nM
same,"% Emax cf. ACh, M2","[3]; CHO cells stably expressing human M2, Emax relative to ACh, listed as 6-5 Isomer 2",68%
same,EC50,[3]; [7],2340 nM
same,"% Emax cf. ACh, M4","[4]; CHO cells stably expressing human M4, listed as 6-5 Isomer 2",73%
same,EC50,[4]; [8],145 nM
